Assay results taken from PMC8401167, “Point Mutations and Cytochrome P450 Can Contribute to Resistance to ACCase-Inhibiting Herbicides in Three Phalaris Species” (Plants, 2021).
Like-named read-outs stand apart in the source and are kept apart here.

Experiments:
Assay in all cases: […]bicarbonate incorporation into malonyl-CoA
Assay type in all cases: biochemical
[1] = target: T1, ACCase (Phalaris brachystachys); conditions: 1.5 mM ATP, 5 mM acetyl-CoA, 5 mM MgCl2, 15 mM NaH14CO3, pH 8.3, 34 °C, R biotype (zygosity not given), stated gain, read-out: I50
T1 construct: cytosolic form not separated

ACCase (Phalaris minor) = target: T2, ACCase (Phalaris minor); conditions: 1.5 mM ATP, 5 mM acetyl-CoA, 5 mM MgCl2, 15 mM NaH14CO3, pH 8.3, 34 °C, S biotype, read-out: I50
T2 construct: cytosolic form not separated

[2] = target: T3, ACCase (Phalaris paradoxa); conditions: 1.5 mM ATP, 5 mM acetyl-CoA, 5 mM MgCl2, 15 mM NaH14CO3, pH 8.3, 34 °C, S biotype, read-out: I50
T3 construct: cytosolic form not separated

[3] = target: T1, ACCase (Phalaris brachystachys); conditions: 1.5 mM ATP, 5 mM acetyl-CoA, 5 mM MgCl2, 15 mM NaH14CO3, pH 8.3, 34 °C, S biotype, read-out: I50
[4] = table labels herbicide diclofop-methyl, methods say DM acid

## CCc1cc(C)cc(CC)c1-c1c(OC(=O)C(C)(C)C)n2n(c1=O)CCOCC2 [pinoxaden]
[1]
  IC50: 14.4 ± 1.9 µM
ACCase (Phalaris minor)
  IC50: 590 ± 70 nM
[2]
  IC50: 660 ± 90 nM
[3]
  IC50: 780 ± 10 nM

## CC(Oc1ccc(Oc2ccc(Cl)cc2Cl)cc1)C(=O)O (stereo not drawn) [DM acid]
[1]; [4]
  IC50: 6.65 ± 0.78 µM
ACCase (Phalaris minor); [4]
  IC50: 850 ± 30 nM
[2]; [4]
  IC50: 590 ± 230 nM
[3]; [4]
  IC50: 320 ± 50 nM

## CCCC(=NOCC)C1=C(O)CC(C2CCCSC2)CC1=O (stereo not drawn) [cycloxydim]
[1]
  IC50: 2.4 ± 0.34 µM
ACCase (Phalaris minor)
  IC50: 670 ± 910 nM
[2]
  IC50: 460 ± 60 nM
[3]
  IC50: 220 ± 20 nM
